According to patent publication US5250542A, “Peripherally selective piperidine carboxylate opioid antagonists” (Eli Lilly and Company, priority 1992, dated 1993):
Structures can show the parent of a compound that is named as a salt. Where two headings read alike, the source gives them in different places.

Key:
mu receptor = target: T1, mu receptor (Rattus norvegicus, UniProt P33535); experiment: opioid receptor binding assay, [3H] NAL (tritiated naloxone), mu receptor; set-up: species or system rat (Male Sprague Dawley), brain minus cerebellum
T1 construct: rat whole brain minus cerebellum for mu was homogenized; from tissue; host or cells: brain of male Sprague Dawley rats, whole brain minus cerebellum, homogenate fraction
T1 sequence (P33535 whole entry): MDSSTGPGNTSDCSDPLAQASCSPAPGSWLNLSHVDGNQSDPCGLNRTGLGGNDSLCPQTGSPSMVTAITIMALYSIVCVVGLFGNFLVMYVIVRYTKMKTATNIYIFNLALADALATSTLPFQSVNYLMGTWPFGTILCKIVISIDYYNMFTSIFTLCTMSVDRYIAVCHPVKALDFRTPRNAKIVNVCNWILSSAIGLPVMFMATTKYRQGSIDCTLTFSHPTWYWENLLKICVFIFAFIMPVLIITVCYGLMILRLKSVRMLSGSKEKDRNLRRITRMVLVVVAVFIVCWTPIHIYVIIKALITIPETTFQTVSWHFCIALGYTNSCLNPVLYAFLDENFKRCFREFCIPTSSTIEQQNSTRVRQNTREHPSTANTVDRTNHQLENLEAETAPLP
Method in brief: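 Displacement of [3H]naloxone was measured on rat whole brain minus cerebellum membranes, preincubated 20 min and incubated 20 min at 37° C, with filtration separating bound ligand. Ki was derived from IC50 and ligand KD. Percent displacement was also recorded at 10 nM and 100 nM test compound.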

[1] = target: T2, peripheral opioid receptors (Mus musculus, UniProt P42866); experiment: precipitated diarrhea in morphine-maintained mice (peripheral opioid activity) and comparison with the writhing test; assay type: in vivo; conditions: for Ratio (AD50 mouse writhing test / ED50 mouse diarrhea test): higher ratio = greater relative antagonism of peripheral opioid receptors; for ED50: mouse, 0.5 h, morphine-maintained mice, antagonist subcutaneous or oral, 30 min observation
T2 construct: Mice maintained (6 mice/cage) on 0.01M saccharin water with 1 g/1 morphine sulfate; from tissue; host or cells: living morphine-maintained mice (in vivo test; endogenous receptor)
T2 sequence (P42866 whole entry): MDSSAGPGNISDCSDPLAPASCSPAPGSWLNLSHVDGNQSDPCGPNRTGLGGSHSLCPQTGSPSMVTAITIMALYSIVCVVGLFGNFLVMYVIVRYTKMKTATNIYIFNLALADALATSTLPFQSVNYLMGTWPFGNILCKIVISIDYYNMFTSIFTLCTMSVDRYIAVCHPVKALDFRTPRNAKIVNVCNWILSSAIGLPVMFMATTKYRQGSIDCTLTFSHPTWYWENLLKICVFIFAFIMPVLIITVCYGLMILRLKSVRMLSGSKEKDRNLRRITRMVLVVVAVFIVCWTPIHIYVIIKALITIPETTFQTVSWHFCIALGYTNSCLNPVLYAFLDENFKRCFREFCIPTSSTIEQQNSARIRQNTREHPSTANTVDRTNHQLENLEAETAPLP
Method in brief: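 Morphine-dependent mice (1 g/l morphine sulfate in drinking water ≥10 days, withdrawn 45 min before dosing) received antagonist subcutaneously or orally, 5 mice/dose. Diarrhea (and jumping) were scored over 30 min and doses lowered to find the diarrhea threshold. Peripheral selectivity was taken as writhing AD50 divided by diarrhea ED50.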

opioid receptor = target: T3, opioid receptor (Mus musculus, UniProt P42866); experiment: mouse writhing analgesis test: block of morphine-induced analgesia; assay type: in vivo, CF-1 male mice; set-up: unit not given here; conditions: dose of antagonist that reduced the inhibition of writhing produced by 1.25 mg/kg morphine sulfate to 50%; subcutaneous, 20 min before acetic acid
T3 construct: Five CF-1 male mice (Charles River, Portage, Mich.); from tissue; host or cells: living CF-1 male mice (in vivo test; endogenous receptor)
T3 sequence (P42866 whole entry): as above
Method in brief: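 Male CF-1 mice (~20 g, fasted overnight, n=5) dosed subcutaneously 20 min before i.p. 0.6% acetic acid; writhes counted for 10 min starting 5 min post-injection. Antagonism measured as blockade of morphine-induced inhibition of writhing, percent versus vehicle controls; ED50 defined as 50% writhing inhibition.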

[2] = 20 min, read-out: % displacement at 10 nM, 10 nM test compound, [3H] naloxone 0.5 nM
[3] = 20 min, read-out: % displacement at 100 nM, 100 nM test compound, [3H] naloxone 0.5 nM
[4] = 20 min, 10 nM test compound, [3H] naloxone 0.5 nM, read-out: % displacement at 10 nM
[5] = 20 min, 100 nM test compound, [3H] naloxone 0.5 nM, read-out: % displacement at 100 nM
[6] = 20 min, read-out: % displacement at 100 nM
[7] = 20 min, read-out: % displacement at 10 nM

SMILES | Ki (mu receptor) [nM] | inhibition at 0.01 µM (mu receptor; [2]) [%] | inhibition at 0.1 µM (mu receptor; [3]) [%] | Ratio (AD50 mouse writhing test / ED50 mouse diarrhea test) [1] | ED50 [1] [mg/kg] | AD50 (opioid receptor) | inhibition at 0.01 µM (mu receptor; [4]) [%] | inhibition at 0.1 µM (mu receptor; [5]) [%] | inhibition at 0.1 µM (mu receptor; [6]) [%] | Ki (mu receptor; [3H] naloxone 0.5 nM, pH 7.4, 37° C., 20 min) [nM] | inhibition at 0.01 µM (mu receptor; [7]) [%]
CC(C)OC(=O)CNC(=O)C(Cc1ccccc1)CN1CC[C@@](C)(c2cccc(O)c2)[C@@H](C)C1 (stereo partly drawn) [Example 51, 2-[[2-(phenylmethyl)-3-[4-(3-hydroxyphenyl)-3,4-dimethyl-1-piperidinyl]-1-oxopropyl]-amino]ethanoic acid 2-propyl ester monohydrochloride] | 5.43 | 85 | 97 | 25 | 0.15 | 3.8 | – | – | – | – | –
C[C@H]1CN(CC(Cc2ccccc2)C(=O)NCC(=O)OCC2CCCCC2)CC[C@@]1(C)c1cccc(O)c1 (stereo partly drawn) [Example 53, 2-[[2-(phenylmethyl)-1-oxo-3-[4-(3-hydroxyphenyl)-3,%-dimethyl-1-piperidinyl]propylamino]-ethanoic acid cyclohexylmethyl estermonohydrochloride] | – | – | – | > 23 | 1.7 | > 40 | 2 | 11 | – | – | –
CC(C)COC(=O)CNC(=O)C(Cc1ccccc1)CN1CC[C@@](C)(c2cccc(O)c2)[C@@H](C)C1 (stereo partly drawn) [Example 54, 2-[2-(phenylmethyl)-1-oxo-3-4-(3-hydroxyphenyl)-3,4-dimethyl-1-piperidinyl]propyl]amino]-ethanoic acid 2-methylpropyl ester monohydrochloride] | – | 78 | – | 1150 | 0.02 | 23 | – | – | 98 | 2.27 | –
C[C@H]1CN(CC(Cc2ccccc2)C(=O)NCC(=O)OCc2ccccc2)CC[C@@]1(C)c1cccc(O)c1 (stereo partly drawn) [Example 55, 2-[[2-(phenylmethyl)-1-oxo-3-[4-(3-hydroxyphenyl)3,4-dimethyl-1-piperidinyl]propyl]amino]-ethanoic acid phenylmethyl ester hydrochloride] | – | – | – | 63 | 0.12 | 7.5 | – | – | 97 | – | 83
C[C@H]1CN(CC(Cc2ccccc2)C(=O)NCCC(=O)OCc2ccccc2)CC[C@@]1(C)c1cccc(O)c1 (stereo partly drawn) [Example 56, hydrochloride] | 0.49 | 97 | – | 667 | 0.06 | 40 | – | – | 98 | – | –
C[C@H]1CN(CC(Cc2ccccc2)C(=O)NCCC(=O)O)CC[C@@]1(C)c1cccc(O)c1 (stereo partly drawn) [Example 57, monohydrate] | 0.5 | – | – | > 400 | 0.1 | > 40 | – | – | 98 | – | 92
CNC(=O)CCNC(=O)C(Cc1ccccc1)CN1CC[C@@](C)(c2cccc(O)c2)[C@@H](C)C1 (stereo partly drawn) [Example 59, N-(methyl)-3-[[3-[4-(3-hydroxyphenyl)-3,4-dimethyl-1-piperidinyl]-2-(phenylmethyl)-1-oxopropyl]amino]propanamide monohydrochloride] | 4.64 | 88 | 100 | 11 | 0.54 | 5.9 | – | – | – | – | –
CCNC(=O)CCNC(=O)C(Cc1ccccc1)CN1CC[C@@](C)(c2cccc(O)c2)[C@@H](C)C1 (stereo partly drawn) [Example 60, N-(ethyl)-3-[[3-[4-(3-hydroxyphenyl)-3,4-dimethyl-1-piperidinyl]-2-(phenylmethyl)-1-oxopropyl]amino]propanamide monohydrochloride] | 1.89 | 100 | 100 | 112 | 0.1 | 11.2 | – | – | – | – | –
CNC(=O)CCCNC(=O)C(Cc1ccccc1)CN1CC[C@@](C)(c2cccc(O)c2)[C@@H](C)C1 (stereo partly drawn) [Example 62, N-(methyl)-4-[[3-]4-(3-hydroxyphenyl)-3,4-dimethyl-1-piperidinyl]-2-(phenylmethyl)-1-oxopropyl]amino]butanamide monohydrochloride monohydrate] | 1.18 | 89 | – | 122 | 0.15 | 18.3 | – | – | 98 | – | –
C[C@H]1CN(CC(Cc2ccccc2)C(=O)NCCCC(N)=O)CC[C@@]1(C)c1cccc(O)c1 (stereo partly drawn) [Example 63, 4-[[3-[4-(3-hydroxyphenyl)-3,4-dimethyl-1-piperidinyl]-2-(phenylmethyl)-1-oxopropyl]-amino]butanamide monohydrochloride] | 2 | 89 | 100 | 90 | 0.29 | 26 | – | – | – | – | –
CCNC(=O)CCCNC(=O)C(Cc1ccccc1)CN1CC[C@@](C)(c2cccc(O)c2)[C@@H](C)C1 (stereo partly drawn) [Example 64, N-(ethyl)-4-[[3-4-(3-hydroxyphenyl)-3,4-dimethyl-1-piperidinyl]-2-(phenylmethyl)-1-oxopropyl]amino]butanamide monohydrochloride] | 1.23 | 94 | 100 | > 45 | 0.9 | > 40 | – | – | – | – | –
CCOC(=O)CN(C)C(=O)C(Cc1ccccc1)CN1CC[C@@](C)(c2cccc(O)c2)[C@@H](C)C1 (stereo partly drawn) [Example 65, [[2-[[4-(3-hydroxyphenyl)-3,4-dimethyl-1-piperidinyl]methyl]-1-oxo-3-phenylpropyl]-methylamino]acetic acid ethyl ester monohydrochloride] | – | – | – | 3 | 0.92 | 2.8 | 57 | 95 | – | – | –
